Assay [1] addresses recombinant human Mcl-1 (residues 171-327) / Bim interaction (Homo sapiens (Human), UniProt Q07820). Kind of assay: biochemical. As to conditions: read-out: Mcl-1 HTRF IC50. The format is binding.
Assay [2] has as its system human multiple myeloma cell line, OPM-2. Briefly: Cell viability assay (OPM-2 10 FBS), CellTiter-Glo. The class given is cell-based. An outline of the steps:
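Steps: plate cells at 3000/well in 10% FBS growth medium, add serially diluted compound, incubate 16 h at 37 °C with 5% CO2, add detection reagent and read luminescence after 25 min. A 4-parameter logistic model gives IC50.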

[3] abbreviates: 0.1 nM Mcl-1(171-327), 0.05 nM biotin-Bim (51-76).
[4] abbreviates: Homo sapiens, OPM-2, 16 h, read-out: OPM-2 10% FBS IC50 IP, OPM-2 cells, 10% FBS, 16 h incubation.
Where [5] appears, read: TR-FRET, Mcl-1(171-327) / biotin-Bim (51-76).
[6] abbreviates: Homo sapiens, OPM-2, 16 h, read-out: OPM-2 10% FBS IC50 IP, OPM-2 cells, 10% FBS, 16 h, CellTiter-Glo.
Setting [7] is: read-out: OPM-2 10% FBS IC50 IP, OPM-2 cells, 10% FBS, 16 h incubation.
The mark [8] stands for this setting: read-out: OPM-2 10% FBS IC50 IP, OPM-2 cells, 10% FBS, 16 h, CellTiter-Glo.

Where two headings read alike, the source gives them in different places.

Sequence of recombinant human Mcl-1 (residues 171-327) / Bim interaction (Q07820 171-327): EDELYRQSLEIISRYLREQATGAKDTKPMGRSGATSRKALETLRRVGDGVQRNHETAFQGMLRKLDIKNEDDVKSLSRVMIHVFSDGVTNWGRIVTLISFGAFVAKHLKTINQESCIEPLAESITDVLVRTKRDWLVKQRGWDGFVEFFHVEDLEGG

For the compound `CNC[C@@]1(OC)/C=C/C[C@H](C)[C@@H](C)S(=O)(=O)NC(=O)c2ccc3c(c2)N(C[C@@H]2CC[C@H]21)C[C@@]1(CCCc2cc(Cl)ccc21)CO3` [Example 70, (1S,3′R,6′R,7′R,8′E,11′S,12′R)-6-chloro-7′-methoxy-11′,12′-dimethyl-7′-((methylamino)methyl)-3,4-dihydro-2H,15′H-spiro[naphthalene-1,22′-[20]oxa[13]thia[1,14]diazatetracyclo [14.7.2.0~3,6~.0~19,24~]pentacosa[8,16,18,24]tetraen]-15′-one 13′,13′-dioxide], the half-maximal inhibitory concentration (IC50) in assay [1] (setting [3]) was 1.33 nM; in assay [2] (setting [4]), 3140 nM.
As to `CO[C@@H](C(=O)N(C)C)[C@@]1(O)/C=C/C[C@H](C)[C@@H](C)S(=O)(=O)NC(=O)c2ccc3c(c2)N(C[C@@H]2CC[C@H]21)C[C@@]1(CCCc2cc(Cl)ccc21)CO3` [Example 100286, (2R)-2-((1S,3′R,6′R,7′R,8′E,11′S,12′R)-6-chloro-7′-hydroxy-11′,12′-dimethyl-13′,13′-dioxido-15′-oxo-3,4-dihydro-2H-spiro[naphthalene-1,22′-[20]oxa[13]thia[1,14]diazatetracyclo [14.7.2.0~3,6~.0~19,24~]pentacosa[8,16,18,24]tetraen]-7′-yl)-2-methoxy-N,N-dimethylethanamide], the values for the IC50 in assay [1] (setting [5]) and in assay [2] (setting [6]) were 0.471 nM and 1580 nM, respectively.
On to `CO[C@]1(CN2CCN3CCC(F)(F)C[C@@H]3C2)/C=C/C[C@H](C)[C@@H](C)S(=O)(=O)NC(=O)c2ccc3c(c2)N(C[C@@H]2CC[C@H]21)C[C@@]1(CCCc2cc(Cl)ccc21)CO3` (single isomer, unassigned) [Example 298], for which the IC50 was 0.279 nM in assay [1] (setting [3]) and 262 nM in assay [2] (setting [7]).
Regarding `C[C@@H]1[C@@H](C)CCC[C@](O)(CC(=O)N2CCN(C)CC2)[C@@H]2CC[C@H]2CN2C[C@@]3(CCCc4cc(Cl)ccc43)COc3ccc(cc32)C(=O)NS1(=O)=O` (single isomer, unassigned) [Example 100168], the results for the half-maximal inhibitory concentration (IC50) in assay [1] (setting [5]) and in assay [2] (setting [6]) were 0.249 nM and 196 nM, respectively.
`CO[C@@]1(CN2CC(CO)(CO)C2)/C=C/C[C@H](C)[C@@H](C)S(=O)(=O)NC(=O)c2ccc3c(c2)N(C[C@@H]2CC[C@H]21)C[C@@]1(CCCc2cc(Cl)ccc21)CO3` [Example 206, (1S,3′R,6′R,7′S,8′E,11′S,12′R)-7′-((3,3-bis(hydroxymethyl)-1-azetidinyl)methyl)-6-chloro-7′-methoxy-11′,12′-dimethyl-3,4-dihydro-2H,15′H-spiro[naphthalene-1,22′-[20]oxa[13]thia[1,14]diazatetracyclo [14.7.2.0~3,6~.0~19,24~]pentacosa[8,16,18,24]tetraen]-15′-one 13′,13′-dioxide]: the values for the concentration for half-maximal inhibition (IC50) in assay [1] (setting [3]) and in assay [2] (setting [4]) were 0.223 nM and 6300 nM, respectively.
Take `CNC(=O)C[C@]1(O)CCC[C@H](C)[C@@H](C)S(=O)(=O)NC(=O)c2ccc3c(c2)N(C[C@@H]2CC[C@H]21)C[C@@]1(CCCc2cc(Cl)ccc21)CO3` [Example 100098, 2-((1S,3′R,6′R,7′R,11′S,12′R)-6-chloro-7′-hydroxy-11′,12′-dimethyl-13′,13′-dioxido-15′-oxo-3,4-dihydro-2H-spiro[naphthalene-1,22′-[20]oxa[13]thia[1,14]diazatetracyclo [14.7.2.0~3,6~.0~19,24~]pentacosa[16,18,24]trien]-7′-yl)-N-methylacetamide]: the IC50 in assay [1] (setting [5]) was determined as 0.231 nM; in assay [2] (setting [6]), 748 nM.
Take `CO[C@@]1(C[C@@H](O)C(C)C)/C=C/C[C@H](C)[C@@H](C)S(=O)(=O)NC(=O)c2ccc3c(c2)N(C[C@@H]2CC[C@H]21)C[C@@]1(CCCc2cc(Cl)ccc21)CO3` (single isomer, unassigned) [Example 100366]: the values for the concentration for half-maximal inhibition (IC50) in assay [1] (setting [5]) and in assay [2] (setting [8]) were 0.198 nM and 168 nM, respectively.
`C[C@@H]1[C@@H](C)CC2C=CC[C@@](O)(C2)[C@@H]2CC[C@H]2CN2C[C@@]3(CCCc4cc(Cl)ccc43)COc3ccc(cc32)C(=O)NS1(=O)=O` (stereo in doubt) [Example 100058, (1S,3′R,6′R,7′R,11′S,13′S,14′R)-6-chloro-7′-hydroxy-13′,14′-dimethyl-3,4-dihydro-2H,17′H-spiro[naphthalene-1,24′-[22]oxa[15]thia[1,16]diazapentacyclo [16.7.2.1~7,11~.0~3,6~.0~21,26~]octacosa [9,18,20,26]tetraen]-17′-one 15′,15′-dioxide]: the half-maximal inhibitory concentration (IC50) in assay [1] (setting [5]) is 1.76 nM; in assay [2] (setting [6]), 3360 nM.
In the same order, the values of `COCCC#C[C@]1(OC)/C=C/C[C@H](C)[C@@H](C)S(=O)(=O)NC(=O)c2ccc3c(c2)N(C[C@@H]2CC[C@H]21)C[C@@]1(CCCc2cc(Cl)ccc21)CO3` [Example 100423, (1S,3′R,6′R,7′S,8′E,11′S,12′R)-6-chloro-7′-methoxy-7′-(4-methoxy-1-butyn-1-yl)-11′,12′-dimethyl-3,4-dihydro-2H,15′H-spiro[naphthalene-1,22′-[20]oxa[13]thia[1,14]diazatetracyclo [14.7.2.0~3,6~.0~19,24~]pentacosa[8,16,18,24]tetraen]-15′-one 13′,13′-dioxide] are 0.056 nM and 99 nM.
In the case of `COCCO[C@]1(CN2CCN3CCCC[C@@H]3C2)/C=C/C[C@H](C)[C@@H](C)S(=O)(=O)NC(=O)c2ccc3c(c2)N(C[C@@H]2CC[C@H]21)C[C@@]1(CCCc2cc(Cl)ccc21)CO3` [Example 152, (1S,3′R,6′R,7′R,8′E,11′S,12′R)-6-chloro-7′-(2-methoxyethoxy)-11′,12′-dimethyl-7′-((9aR)-octahydro-2H-pyrido[1,2-a]pyrazin-2-ylmethyl)-3,4-dihydro-2H,15′H-spiro[naphthalene-1,22′-[20]oxa[13]thia[1,14]diazatetracyclo [14.7.2.0~3,6~.0~19,24~]pentacosa[8,16,18,24]tetraen]-15′-one 13′,13′-dioxide], the half-inhibitory concentration (IC50) was 0.092 nM in assay [1] (setting [3]) and 110 nM in assay [2] (setting [4]).
“(1S,3′R,6′R,7′R,8′E,11′S,12′R)-6-chloro-12′-(2-(dimethylamino)ethyl)-7′-methoxy-11′-methyl-7′-((9aR)-octahydro-2H-pyrido[1,2-a]pyrazin-2-ylmethyl)-3,4-dihydro-2H,15′H-spiro[naphthalene-1,22′-[20]oxa[13]thia[1,14]diazatetracyclo[14.7.2.0-3,6˜.0˜19,24˜]pentacosa[8,16,18,24]tetraen]-15′-one 13′,13′-dioxide [Example 367]”: the 50% inhibitory concentration (IC50) in assay [1] (setting [3]) turned out to be 0.201 nM; in assay [2] (setting [7]), 273 nM.
Consider `C[C@@H]1[C@@H](C)C/C=C/[C@]2(CN(CC3CCCCC3)CCO2)[C@@H]2CC[C@H]2CN2C[C@@]3(CCCc4cc(Cl)ccc43)COc3ccc(cc32)C(=O)NS1(=O)=O` [Example 139, (1S,3′R,6′R,7′R,8′E,11′S,12′R)-6-chloro-4″- (cyclohexylmethyl)-11′,12′-dimethyl-3,4-dihydro-2H,15′H-dispiro[naphthalene-1,22′-[20]oxa[13]thia[1,14]diazatetracyclo [14.7.2.0~3,6~.0~19,24~]pentacosa[8,16,18,24]tetraene-7′,2″-[1,4]oxazinan]-15′-one 13′,13′-dioxide], for which the IC50 in assay [1] (setting [3]) is 32 nM; in assay [2] (setting [4]) it was over 33300 nM.
For `CCCCO[C@]1(CN2CCN3CCOC[C@@H]3C2)/C=C/C[C@H](C)[C@@H](C)S(=O)(=O)NC(=O)c2ccc3c(c2)N(C[C@@H]2CC[C@H]21)C[C@@]1(CCCc2cc(Cl)ccc21)CO3` [Example 48, (1S,3′R,6′R,7′R,8′E,11′S,12′R)-7′-butoxy-6-chloro-7′-((9aS)-hexahydropyrazino[2,1-c][1,4]oxazin-8(1H)-ylmethyl)-11′,12′-dimethyl-3,4-dihydro-2H,15′H-spiro[naphthalene-1,22′-[20]oxa[13]thia[1,14]diazatetracyclo [14.7.2.0~3,6~.0~19,24~]pentacosa[8,16,18,24]tetraen]-15′-one 13′,13′-dioxide] the same measures were 0.14 nM and 407 nM.
Turning to `C[C@H](C(=O)O)[C@@]1(O)/C=C/C[C@H](C)[C@@H](C)S(=O)(=O)NC(=O)c2ccc3c(c2)N(C[C@@H]2CC[C@H]21)C[C@@]1(CCCc2cc(Cl)ccc21)CO3` (single isomer, unassigned) [Example 100123], the half-maximal inhibitory concentration (IC50) amounted to 0.092 nM in assay [1] (setting [5]) and 2660 nM in assay [2] (setting [8]).
With `CO[C@@]1(CN2CCC=C(F)C2)/C=C/C[C@H](C)[C@@H](C)S(=O)(=O)NC(=O)c2ccc3c(c2)N(C[C@@H]2CC[C@H]21)C[C@@]1(CCCc2cc(Cl)ccc21)CO3` [Example 68, (1S,3′R,6′R,7′S,8′E,11′S,12′R)-6-chloro-7′-((5-fluoro-3,6-dihydro-1(2H)-pyridinyl)methyl)-7′-methoxy-11′,12′-dimethyl-3,4-dihydro-2H,15′H-spiro[naphthalene-1,22′-[20]oxa[13]thia[1,14]diazatetracyclo [14.7.2.0~3,6~.0~19,24~]pentacosa[8,16,18,24]tetraen]-15′-one 13′,13′-dioxide], the figures for the IC50 in assay [1] (setting [3]) and in assay [2] (setting [4]) were 0.397 nM and 1520 nM, respectively.
Regarding `C[C@@H]1[C@@H](C)CCC[C@](C)(CO)[C@@H]2CC[C@H]2CN2C[C@@]3(CCCc4cc(Cl)ccc43)COc3ccc(cc32)C(=O)NS1(=O)=O` [Example 100301, (1S,3′R,6′R,7′S,11′S,12′R)-6-chloro-7′-(hydroxymethyl)-7′,11′,12′-trimethyl-3,4-dihydro-2H,15′H-spiro[naphthalene-1,22′-[20]oxa[13]thia[1,14]diazatetracyclo [14.7.2.0~3,6~.0~19,24~]pentacosa[16,18,24]trien]-15′-one 13′,13′-dioxide], the IC50 amounted to 1.31 nM in assay [1] (setting [5]) and 1930 nM in assay [2] (setting [6]).

For the origin of these results see patent publication US10821115B2, “Compounds that inhibit Mcl-1 protein” (priority 2017, dated 2020).
